System: thymus (homing of Brown Norway rat PBMCs)
Test: Thymic homing of injected donor PBMCs after drug treatment (homed cell counting in sliced thymus)
Type: in vivo, Lewis rats
Conditions: for Thymic homing (cell number): control 6580; for Thymic homing compared with control and other treated groups: doses as in Table 1; for Activation of the epithelial cells of the thymus: stated in discussion of Example 1
Experimental: Inbred male Lewis rats (LW, RT1l) were injected intramuscularly with rapamycine (RAPA; 0.1 mg/kg/d), tacrolimus (TAC; 0.2 mg/kg/d), cyclosporine A (CsA; 10 mg/kg), PGE 1 (32 ug/kg or 10 ug/kg) or a control.
One hour after the above treatments, 1.2-1.6×10^7 peripheral blood mononuclear cells (PBMCs) were obtained from Brown Norway rats (BN, RT1n). The cells were stained with IUBD and then injected intraperitoneally. 24 hours after cellular inoculation, the animals were sacrificed. A thymectomy was performed, the thymus was sliced and homed cell counting was performed. Homed cells may be counted by any method known to one of skill in the art. In this case, as the cells were stained before inoculation, the homed cells in the thymus were identified by the staining. The results of the cell counting are presented in Tables 1 and 2 for each treatment group: […]

[1] = Lewis rats, i.m. RAPA 0.1 mg/kg/d, TAC 0.2 mg/kg/d, CsA 10 mg/kg, 1.2-1.6 × 10^7 BN PBMCs i.p. one hour later, thymus counted 24 hours after inoculation

| Molecule | Thymic homing (cell number) [1] | Thymic homing compared with control and other treated groups | Activation of the epithelial cells of the thymus | Thymic homing (cell number) (PGE1 10 ug/kg i.m., 1.6 × 10^7 donor cells injected, 24 hours) | Thymic homing (cell number) (PGE1 32 ug/kg i.m., 1.6 × 10^7 donor cells injected, 24 hours) | Effect on epithelial cells and PBMCs (PGE1 high dose 32 ug/kg) | Thymic homing compared with low dose and control (PGE1 high dose 32 ug/kg) |
| --- | --- | --- | --- | --- | --- | --- | --- |
| cyclosporine A [CsA] | 3365 | inactivated PBMCs that homed to the thymus | do activate | – | – | – | – |
| CO[C@H]1C[C@@H]2CC[C@@H](C)[C@@](O)(O2)C(=O)C(=O)N2CCCC[C@H]2C(=O)O[C@H]([C@H](C)C[C@@H]2CC[C@@H](O)[C@H](OC)C2)CC(=O)[C@H](C)/C=C(\C)[C@@H](O)[C@@H](OC)C(=O)[C@H](C)C[C@H](C)/C=C/C=C/C=C/1C [RAPA, rapamycine] | 920 | – | – | – | – | – | – |
| CCCCC[C@H](O)/C=C/[C@H]1[C@H](O)CC(=O)[C@@H]1CCCCCCC(=O)O [PGE1] | – | – | – | 8890 | 4680 | inactivated the epithelial cells as well as the PBMCs | less thymic homing than low doses |
| C=CC[C@@H]1/C=C(\C)C[C@H](C)C[C@H](OC)[C@H]2O[C@@](O)(C(=O)C(=O)N3CCCC[C@H]3C(=O)O[C@H](/C(C)=C/[C@@H]3CC[C@@H](O)[C@H](OC)C3)[C@H](C)[C@@H](O)CC1=O)[C@H](C)C[C@@H]2OC [FK506, tacrolimus] | 2360 | inactivated PBMCs that homed to the thymus | do activate | – | – | – | – |

From patent US20060228333A1, “Methods for control of tumors and chronic infections by modulating immunologically informed carriers homing to tolerogenic organs or tissues” (priority 2004, published 2006)
